# From publication PMC2360155, “Novel retinoic acid metabolism blocking agents have potent inhibitory activities on human breast cancer cells and tumour growth” (British Journal of Cancer, 2007)
# “Also recorded” adds a separate entry of the source.
# Columns and labels:
# MCF-7 cells = assay: TUNEL apoptosis assay, MCF-7; type: cell-based, human; conditions: 5 μM; 6 days; control about 1.5%
# Text: The cells were rinsed with PBS and then the stained-labelled apoptotic cells were mounted using DAPI (diamidino-2-phenylindole 2HCl)-glycerol and visualised with a fluorescent microscope using two filters (1) for TUNEL stained cells, and (2) for DAPI stained cells, which represents all the cells (nuclei). Fluorescent microscope model was Nikon, Eclipse E400 and the software was SPOT advanced version 3.5.5 by Diagnostic Instruments Inc. (Sterling Heights, MI, USA).
# Figure 6 Graphs showing apoptosis induced in (A) MCF-7 and (B) T47D cells as determined by TUNEL. […] TUNEL-stained apoptotic cells were counted against the DAPI stained cells to obtain percentage apoptosis. The experiments were repeated thrice with similar results. Error bars show s.e.m of three different fields of treated cells, statistically significant ^*P<0.01 and ^**P<0.001 vs control.
# [1] = system: MCF-7Ca tumour xenografts; assay: In vivo antitumour study, MCF-7Ca tumour xenografts; design: species or system ovariectomised female athymic nude mice; conditions: for Prevention of formation of MCF-7Ca tumours (in words): 20 mg kg^−1 day^−1 from the day after inoculation
# Method: The third in vivo antitumour experiment was conducted with MCF-7Ca tumours. MCF-7Ca were provided by Dr S Chen (City of Hope, Duarte, CA, USA). The tumour xenografts were grown in mice as described previously ([Yue et al, 1994]). Subconfluent cells were scraped into Delbecco's phosphate-buffered saline, collected by centrifugation and resuspended in Matrigel (10 mg ml^−1) at 2.5 × 10^7 cells ml^−1. Each mouse received s.c. inoculations in two sites per flank with 100 μl of cell suspension. Mice in the tumour formation prevention group (n=5) were than injected daily with androstenedione (100 μg day^−1) plus VN/14-1 (20 mg kg^−1 day^−1) in the vehicle for the duration of the experiment. The rest of the mice were injected daily with 100 μg day^−1 of androstenedione. Measurements and treatments began when the tumours reached approximately 300 mm^3, about 6 weeks after cell inoculation. Mice were assigned to groups for treatment so that there was no statistically significant difference in tumour volumes among the groups at the beginning of the treatment. Tumours were measured and volumes calculated as described above. Mice were than injected s.c. daily with the indicated agents: 100 μg per mouse per day (5 × weekly) plus 10 μg per mouse per day (5 × weekly) of letrozole or 200 μg per mouse per day (5 × weekly) of anastrozole and 20 mg kg^−1 day^−1 (5 × weekly) of VN/14-1. The doses of letrozole, anastrozole, androstendione and VN/14-1 used are as determined previously ([Long et al, 2002], [2004]; [Patel et al, 2004]). The mice were treated for the indicated times, after which they were killed by decapitation and blood collected. Tumours and uteri were excised, cleaned, weighed and stored at −80°C for additional analyses.
# Figure 10 Effects of VN/14-1 on the formation of MCF-7Ca tumours and effects of VN/14-1, anastrozole and letrozole on the growth of MCF-7Ca xenografts in ovariectomised female athymic nude mice. Mice were inoculated with MCF-7Ca cells as described in Materials and Methods. Beginning on the following day, androstendione (100 μg per mouse per day) was supplemented by s.c. injection for the duration of the experiment. For the tumour formation prevention group (n=5), VN/14-1 (20 mg kg^−1 day^−1) treatment began from the day after inoculation. For the other groups (VN/14-1, anastrazole and letrozole), treatment began after the tumour had reached approximately 300 mm^3 following procedures described in Materials and Methods.
Structure (SMILES),"Induction of apoptosis (TUNEL), MCF-7 (MCF-7 cells)",Prevention of formation of MCF-7Ca tumours (in words) [1],Prevention of formation of MCF-7Ca tumours (in words) ([1]; listed as VN14-1),"Inhibition of growth of established MCF-7Ca tumours (in words) ([1]; 20 mg kg^−1 day^−1 s.c. (5 × weekly), androstenedione supplemented)","Uterine wet weight ([1]; VN/14-1 treatment, data not shown)"
CC1=C(/C=C/C(C)=C/C=C/C(C)=C\C(=O)Nc2ccc(O)cc2)C(C)(C)CCC1n1ccnc1 (centres unmarked) [VN/69-1],least effective of the RAMBAs in inducing apoptosis,–,–,–,–
CC1=C(/C=C/C(C)=C/C=C/C(C)=C/C(=O)O)C(C)(C)CCC1n1ccnc1 (centres unmarked) [VN/14-1],–,very effective in preventing the formation of MCF-7Ca tumours,efficacious in preventing the formation of MCF-7Ca tumours,"as effective as the clinically used aromatase inhibitors, anastrozole and letrozole; also recorded: as effective as either anastrozole or letrozole",significant reduction in uterine wet weight
